Where a name gives a salt, the structure may show the parent alone.

In assay [1] the test system is guinea pig tracheal chain preparation. Description: effect on spontaneous tone of guinea pig tracheal chain preparation (β-stimulant direct relaxant effect on airway smooth muscle). The format is cell-based. Conditions: Cavia porcellus, in vitro, read-out: ED50, dose which produces 50% of the maximum possible relaxation. The procedure:
(§1) The compounds of this invention are β-adrenergic stimulants which have direct bronchodilator activity with minimal cardiac stimulation. This selective β-stimulant activity is determined by two standard in vitro pharmacological test systems: (1) effect on spontaneous tone of guinea pig tracheal chain preparation as a measure of β-stimulant (direct relaxant) effect on airway smooth muscle, and (2) effect on spontaneously beating right atria of the guinea pig as a measure of β-stimulant effect on cardiac muscle. Compounds that show selective bronchodilating properties, as the compounds of this invention do, are active in test (1) at a dose lower than is required in test (2) thereby resulting in a positive separation ratio. Results of test (1) are reported as the dose which produces 50% of the maximum possible relaxation (ED50). Test (2) results are reported as the dose which produces 25% of the maximum possible increase in atrial contraction rate (ED25).

For assay [2], the system named is spontaneously beating right atria of the guinea pig. In words: effect on spontaneously beating right atria of the guinea pig (β-stimulant effect on cardiac muscle). The assay is classed as cell-based. Conditions: Cavia porcellus, in vitro, read-out: ED25, dose which produces 25% of the maximum possible increase in atrial contraction rate. The procedure: as §1

For `Nc1cc(C(O)C2CCCCN2)ccc1O` (stereo not drawn) [α-(3-amino-4-hydroxyphenyl)-2-piperidylcarbinol hydrobromide], the EC50 in assay [1] amounted to 0.12 µg/mL. The EC25 in assay [2] amounted to 4.4 µg/mL.

As to `CS(=O)(=O)Cc1cc(C(O)C2CCCCN2)ccc1O` (stereo not drawn) [α-(4-hydroxy-3-methanesulfonylmethylphenyl)-2-piperidylcarbinol hydrobromide], the EC50 in assay [1] worked out at 0.14 µg/mL. Further, the EC25 in assay [2] was 1.1 µg/mL.

As for `NC(=O)Nc1cc(C(O)C2CCCCN2)ccc1O` (stereo not drawn) [α-(4-hydroxy-3-ureidophenyl)-2-piperidylcarbinol hydrochloride], in assay [1], the EC50 is 0.83 µg/mL. Also, in assay [2], the EC25 was determined as 9.4 µg/mL.
